{"source": "paper PMC9095880", "about": "“AIMP2-DX2 provides therapeutic interface to control KRAS-driven tumorigenesis” (Nature Communications, 2022)", "biological_target": "T1, AIMP2 (Homo sapiens, UniProt Q13155)", "T1 construct": "purified AIMP2, in vitro pull-down", "T1 sequence (Q13155 1-320)": "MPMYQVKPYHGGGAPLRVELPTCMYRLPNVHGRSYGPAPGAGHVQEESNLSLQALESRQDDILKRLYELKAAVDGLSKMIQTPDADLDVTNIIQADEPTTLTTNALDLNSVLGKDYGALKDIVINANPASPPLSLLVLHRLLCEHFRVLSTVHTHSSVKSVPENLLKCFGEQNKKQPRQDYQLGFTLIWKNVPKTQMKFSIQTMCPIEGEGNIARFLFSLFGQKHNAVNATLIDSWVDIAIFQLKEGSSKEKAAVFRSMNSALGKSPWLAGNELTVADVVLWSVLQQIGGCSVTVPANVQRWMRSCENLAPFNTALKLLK", "test": "in vitro pull-down with purified AIMP2", "details": "no binding to cellular AIMP2 in immunoprecipitation", "data": [{"compound": "COc1ccc(-c2ccc(CN(C(=O)c3cnc4ccccc4n3)c3ccccc3F)s2)cc1C", "note": "[BC-DXI-32982]", "values": [{"measurement": "in vitro pull-down with purified AIMP2", "value": "DXI showed binding to the purified AIMP2 in an in vitro pull-down assay"}]}]}
